# Measured values taken from patent publication EP0262209B1, “SYNERGISTIC PLANT GROWTH REGULATOR COMPOSITIONS” (RHONE POULENC NEDERLAND B.V., priority 1986, dated 1987).
# Assays:
# [1] = test system: snapbean plants; test: Defoliation of snapbean plants with various ethylene releasing agents (Example XVI, Table M); assay type: in vivo, Phaseolus vulgaris var. Cranberry
# Description: (§1) Solutions of the test compounds and compositions identified in Table C below were prepared by dissolving the compounds in acetone/water (50:50 volume/volume) containing 0.1 percent volume/volume of Triton X-100 surfactant commercially available from Rhom and Haas Company, Philadelphia, Pennsylvania. As detailed below, these solutions of the test compounds and compositions were applied to snapbean plants at a concentration of 0.25 pounds of each active ingredient per acre (0.28 kg/ha) or 0.50 pounds of each active ingredient per acre (0.56 kg/ha). The compositions were applied to the snapbean plants as a mixture. Ethephon is commercially available from Union Carbide Agricultural Products Company, Inc., Research Triangle Park, North Carolina.
# (§2) Into 13.5 centimeter diameter plastic pots containing a potting soil mix, i.e., one-third sandy loam soil, one-third peat moss and one-third perlite by volume, were sown three snapbean seeds (Phaseolus vulgaris var. Cranberry). Five to seven days after planting, the plants were thinned to one plant per pot. Ten to fourteen days after planting at the time of full expansion of the primary leaves, each concentration of the test compounds and compositions identified in […] (each pot sprayed with a volume equivalent to 180 gallons per acre) - i.e. 1683 l/ha was applied to three snapbean plants as a foliar spray by use of an aspirated spray apparatus set at 10 psig air pressure (517 mmHg). As a control, a water-acetone solution containing no test compound or composition was also sprayed on three snapbean plants. When dry, all or the plants were placed in a greenhouse at a temperature of 80°F ± 5°F (27°C ± 3°C) and humidity of 50 percent ± 5 percent. At 96 hours after treatment, percent defoliation of the snapbean plants was determined by visual observation. The values obtained For the control and each test compound and composition were averaged to obtain the results in Table C.
# In a manner similar to the procedure described in Example VI , the defoliation effect on snapbean plants was determined for representative synergistic compositions at various rates of application using various ethylene releasing agents identified in Table M below. The ethylene releasing agents used in […] are known materials which can be prepared by conventional methods.
# [2] = test system: cotton; test: Defoliation of cotton at various rates (Example XII, Table I); assay type: in vivo; settings: Rate 0.5 Pounds per Acre, alone
# Description: (§3) Solutions of the test compounds and compositions identified in Table F were prepared by dissolving the compounds in acetone/water (50:50 volume/volume) containing 0.1 percent volume/volume of Surfel® spray adjuvant commercially available from Union Carbide Corporation, Danbury, Connecticut. As detailed below, these solutions of test compounds and compositions were applied to cotton plants at a concentration of 0.5 pounds of each active ingredient per acre (0,6 kg/ha) or 2.0 pounds of active ingredient per acre (2,2 kg/ha). The compositions were applied to cotton as mixtures.
# (§4) The above solutions were applied to cotton plants growing under field conditions at a spray volume equivalent to 100 gallons per acre 935 l/ha) by use of a carbon dioxide backpack sprayer set at about 30 psig air pressure (2 bar). The application timing coincided with a cotton maturity phase equivalent to about 40 percent open bolls. As a control, a water-acetone solution containing no test compound or composition was also sprayed on the cotton plants. At four days after treatment, percent defoliation of the cotton plants was determined by visual observation. At 14 days after treatment, percent boll opening was determined by visual observation of the number of open bolls/total number of bolls. The percent defoliation and percent boll opening values obtained for the control and each of the test compounds and compositions are reported in Table F as the average of three replications. TABLE F
# In a manner similar to the procedure described in Example IX , the defoliation effect on cotton was determined for representative synergistic compositions at various rates of application.
# [3] = test system: snapbean plants; test: Defoliation of snapbean plants, foliar spray (Example VI, Table C); assay type: in vivo, Phaseolus vulgaris var. Cranberry; settings: Phaseolus vulgaris, foliar spray, 96 hours after treatment, read-out: Percent Defoliation; for pest or weed control at 280.212 g/ha: Rate 0.25 Pounds per Acre; for pest or weed control at 560.425 g/ha: Rate 0.50 Pounds per Acre
# Description: as §1, §2
# [4] = test system: snapbean plants; test: Defoliation of snapbean plants at various rates, 72 hours (Example VII, Table D); assay type: in vivo, Phaseolus vulgaris var. Cranberry; settings: 72 hours after treatment
# Description: as §1, §2
# In a manner similar to the procedure described in Example VI, the defoliation effect on snapbean plants was determined for representative synergistic compositions at various rates of application except that percent defoliation of the snapbean plants was determined at 72 hours after treatment. TABLE D
# [5] = test system: cotton; test: Sequential applications, defoliation of cotton (Example XI, Table H); assay type: in vivo; settings: alone
# Description: In a manner similar to the procedure described in Example VI , the defoliation effect on snapbean plants was determined for representative synergistic compositions using both combination (tank mix) and sequential application methods. In the sequential application method, the second compound was applied 78 hours after the first compound. TABLE E
# In a manner similar to the procedure described in Example VIII , the defoliation effect on cotton was determined for representative synergistic compositions using sequential application. Ethephon applications were made 7 days after application of the particular malonic acid derivative compound. TABLE H
# [6] = test system: mature tobacco plants; test: Leaf ripening (chlorosis) of tobacco (Example XV, Table L); assay type: in vivo; settings: Rate 1.0 Pounds per Acre, alone; upper three leaves; 7 days after treatment; control 10
# Description: as §1, with “Ethephon is commercially available from Union Carbide Agricultural Products Company, Inc., Research Triangle Park, North Carolina.” left out
# (§5) Into 13.5 centimeter diameter plastic pots containing a potting soil mix, i.e., one-third sandy loam soil, one-third peat moss and one-third perlite by volume, were sown three snapbean seeds (Phaseolus vulgaris var. Cranberry). […] At 96 hours after treatment, percent defoliation of the snapbean plants was determined by visual observation. […]
# In a manner similar to the procedure described in Example VI except that mature tobacco plants were used in place of snapbean plants, the leaf ripening effect of tobacco was determined for representative synergistic compositions at various rates of application. […] Percent tobacco leaf ripening (chlorosis) was determined by visual observation of the upper three leaves of the tobacco plant at 7 days after treatment. […]
# [7] = test system: cotton plant; test: Regrowth of cotton following defoliation, DEF treated plant as standard (Example XIV, Table K); assay type: in vivo; settings: regrowth relative to DEF standard (43 percent), Rate 0.5 Pounds per Acre, 30 days after treatment; for inhibition at 560.425 g/ha: Gossypium hirsutum, 720 h, read-out: Percent Inhibition
# Description: as §3, §4
# In a manner similar to the procedure described in Example IX , the effect of cotton regrowth after defoliation was determined for representative synergistic compositions at various rates of application. The percent regrowth inhibition and stimulation in Table R below were determined by visual observation based on the percent of a cotton plant having regrowth using a DEF treated cotton plant as the standard. DEF is commercially available from Mobay Chemical Corporation, Kansas City, Missouri. The average regrowth of a cotton plant treated with DEF was 43 percent. As used in Table R, percent regrowth inhibition resulted from a cotton plant having a regrowth percentage less than 43 percent (DEF standard), and percent regrowth stimulation resulted from a cotton plant having a regrowth percentage greater than 43 percent. The percent regrowth inhibition and stimulation were determined 30 days after treatment.
# [8] = test system: cotton plants; test: Defoliation and boll opening of cotton under field conditions (Example IX, Table F); assay type: in vivo; design: key to Percent Boil Opening: *: Percent boll opening essentially the same as the control as determined by visual observation; settings: Rate 2.0 Pounds per Acre; for Percent Boil Opening: 14 days after treatment, result given by footnote symbol, control 41; for Percent Defoliation: field conditions, four days after treatment
# Description: as §3, §4
# [9] = test system: snapbean plants; test: Combination/sequential applications, defoliation of snapbean plants (Example VIII, Table E); assay type: in vivo, Phaseolus vulgaris var. Cranberry; settings: Rate 0.5 Pounds per Acre, applied alone
# Description: as §1
# as §5, with “Cranberry). Five to seven days after planting, the plants were thinned to one plant per pot.” for “Cranberry).”
# In a manner similar to the procedure described in Example VI , the defoliation effect on snapbean plants was determined for representative synergistic compositions using both combination (tank mix) and sequential application methods. […]
# [10] = test system: rank growth cotton; test: Defoliation of cotton (rank growth) (Example X, Table G); assay type: in vivo; settings: Rate 2.0 Pounds per Acre
# Description: as §3, §4
# In a manner similar to the procedure described in Example IX , the defoliation effect on rank growth cotton was determined for representative synergistic compositions at various rates of application. […] TABLE G
# [11] = test system: cotton; test: Defoliation of cotton at various rates (Example XIII, Table J); assay type: in vivo; settings: alone
# Description: as §3, §4
# In a manner similar to the procedure described in Example IX , the defoliation effect on cotton was determined for representative synergistic compositions at various rates of application. TABLE J
# [12] = test system: snapbean plants; test: Abscission of snapbean plant leaves with ethylene gas exposure (Example XVII, Table N); assay type: in vivo, Phaseolus vulgaris var. Cranberry
# [13] = Concentration 125 ppm foliar spray
# [14] = Concentration 250 ppm foliar spray
SMILES,Percent Defoliation ([1]; Rate 0.125 Pounds per Acre) [%],Percent Defoliation ([1]; Rate 0.25 Pounds per Acre) [%],Percent Defoliation ([1]; Rate 0.50 Pounds per Acre) [%],Percent Defoliation [2] [%],pest or weed control at 280.212 g/ha [3] [%],pest or weed control at 560.425 g/ha [3] [%],also measured
O=P(O)(CCCl)OCCCl [2-Chloroethyl ester of 2-chloroethylphosphonic acid],0,0,0,,,,
NP(N)(=O)CCCl [2-Chloroethylphosphonic diamide],0,0,0,,,,
"CCOC(=O)C1(C(=O)Nc2cc(Cl)c(Cl)cc2C)CC1 [Compound 77, ethyl 1-(2-methyl-4,5-dichlorophenylaminocarbonyl)cyclopropanecarboxylate]",,,,0,,,
CCOC(=O)C1(C(=O)Nc2ccc(Cl)cc2Cl)CC1 [Compound 80],,,,,0,0,
CCOC(=O)C1(C(=O)Nc2ccc(Cl)cc2F)CC1 [Compound 82],,,,,0,0,
CCOC(=O)C1(C(=O)Nc2ccc(Br)cc2Cl)CC1 [Compound 88],,,,,0,0,
CCOC(=O)C1(C(=O)Nc2ccc(Br)c(Cl)c2)CC1 [Compound 90],,,,,0,0,
CCOC(=O)C1(C(=O)Nc2ccc(Br)cc2C)CC1 [Compound 96],,,,0,0,0,Percent Defoliation ([4]; Rate 0.25 Pounds per Acre): 0%; Percent Defoliation ([4]; Rate 0.50 Pounds per Acre): 0%; Percent Defoliation ([5]; Rate 0.5 Pounds per Acre): 0%; Percent Defoliation ([5]; Rate 1.0 Pounds per Acre): 0%; Percent Ripening (Chlorosis) [6]: 10%; inhibition at 560.425 g/ha [7]: 0%; Percent Stimulation [7]: 0%; Percent Boil Opening [8]: *; Percent Defoliation [8]: 0%; Percent Defoliation [9]: 0%; Percent Defoliation [10]: 0%
"Cc1cc(Cl)c(Cl)cc1NC(=O)C1(C(=O)O)CC1 [Compound 110, 1-(2-methyl-4,5-dichlorophenylaminocarbonyl)cyclopropanecarboxylic acid]",,,,0,,,
Cc1cc(Br)ccc1NC(=O)C1(C(=O)O)CC1 [Compound 111],0,0,0,,0,0,"Percent Defoliation ([5]; Rate 0.5 Pounds per Acre): 0%; Percent Defoliation ([5]; Rate 1.0 Pounds per Acre): 0%; inhibition at 560.425 g/ha [7]: 0%; Percent Stimulation [7]: 0%; Percent Boil Opening [8]: *; Percent Defoliation [8]: 0%; Percent Defoliation ([11]; Rate 0.25 Pounds per Acre): 0%; Percent Defoliation ([11]; Rate 0.5 Pounds per Acre): 0%; Percent Abscission 48 Hours [12, 13]: 0%; Percent Abscission 96 Hours [12, 13]: 17%; Percent Abscission 48 Hours [12, 14]: 33%; Percent Abscission 96 Hours [12, 14]: 50%; Percent Defoliation [10]: 0%"
